In patent US7485633B2, “Cyclopropyl fused indolobenzazepine HCV NS5B inhibitors” (Bristol-Myers Squibb Company, priority 2005, dated 2009):
Where two headings read alike, the source gives them in different places.

Legend:
HCV replicon cells = experiment: HCV replicon FRET assay; type: cell-based; conditions: Hepatitis C virus
Excerpt: FRET Assay Preparation. To perform the HCV FRET screening assay, 96-well cell culture plates were used. The FRET peptide (Anaspec, Inc.) (Taliani et al., Anal. Biochem. 1996, 240, 60-67) contains a fluorescence donor, EDANS, near one end of the peptide and an acceptor, DABCYL, near the other end. The fluorescence of the peptide is quenched by […] resonance energy transfer (RET) between the donor and the acceptor, but as the NS3 protease cleaves the peptide the products are released from RET quenching and the fluorescence of the donor becomes apparent. The assay reagent was made as follows: 5× cell Luciferase cell culture lysis reagent from Promega (#E153A) diluted to 1× with dH2O, NaCl added to 150 mM final, the FRET peptide diluted to 20 uM final from a 2 mM stock.
To prepare plates, HCV replicon cells, with or without a Renilla luciferase reporter gene, were trypsinized and placed into each well of a 96-well plate with titrated test compounds added in columns 3 through 12; columns 1 and 2 contained a control compound (HCV protease inhibitor), and the bottom row contained cells without compound. The plates were then placed in a CO2 incubator at 37° C.
Assays. Subsequent to addition of the test compounds described above (FRET Assay Preparation), at various times the plate was removed and Alamar blue solution (Trek Diagnostics, #00-100) was added per well as a measure of cellular toxicity. After reading in a Cytoflour 4000 instrument (PE Biosystems), plates were rinsed with PBS and then used for FRET assay by the addition of 30 ul of the FRET peptide assay reagent described above (FRET Assay Preparation) per well. The plate was then placed into the Cytoflour 4000 instrument which had been set to 340 excite/490 emission, automatic mode for 20 cycles and the plate read in a kinetic mode. Typically, the signal to noise using an endpoint analysis after the reads was at least three-fold. Alternatively, after Alamar blue reading, plates were rinsed with PBS, 50 ul of DMEM (high glucose) without phenol red was added and plates were then used for luciferase assay using the Promega Dual-Glo Luciferase Assay System.
Compound analysis was determined by quantification of the relative HCV replicon inhibition and the relative cytotoxicity values. To calculate cytoxicity values, the average Alamar Blue fluorescence signals from the control wells were set as 100% non-toxic. The individual signals in each of the compound test wells were then divided by the average control signal and multiplied by 100% to determine […]. To calculate the HCV replicon inhibition values, an average background value was obtained from the two wells containing the highest amount of HCV protease inhibitor at the end of the assay period. These numbers were similar to those obtained from naïve Huh-7 cells.
The background numbers were then subtracted from the average signal obtained from the control wells and this number was used as 100% activity. The individual signals in each of the compound test wells were then divided by the averaged control values after background subtraction and multiplied by 100% to determine percent activity. EC50 values for a protease inhibitor titration were calculated as the concentration which caused a 50% reduction in FRET or luciferase activity. The two numbers generated for the compound plate, percent cytoxicity and percent activity were used to determine compounds of interest for further analysis.

HCV = HCV patients, combination therapy; cited from earlier work
[1] = HCV replicon cells, FRET assay, read-out: EC50

Compound | EC50 (HCV replicon cells; [1]) [µM] | other results
COc1ccc2c(c1)C1CC1(C(=O)N1C[C@@H](C)N[C@@H](C)C1)Cn1c-2c(C2CCCCC2)c2ccc(C(=O)NS(=O)(=O)N(C)C)cc21 (some centres unmarked) |  | EC50 (HCV replicon cells): 0.02 to 1 µM
CCOc1ccc2c(c1)C1CC1(C(=O)N1CCOCC1)Cn1c-2c(C2CCCCC2)c2ccc(C(=O)O)cc21 (centres unmarked) | 0.02 to 1 | 
C[C@@H]1CN(C(=O)C23CC2c2cc(O)ccc2-c2c(C4CCCCC4)c4ccc(C(=O)NS(=O)(=O)N(C)C)cc4n2C3)C[C@H](C)O1 (some centres unmarked) | 0.02 to 1 | 
COc1ccc2c(c1)C1CC1(C(=O)N1C[C@@H](C)O[C@@H](C)C1)Cn1c-2c(C2CCCCC2)c2ccc(C(=O)O)cc21 (some centres unmarked) | 0.02 to 1 | 
CN(C)S(=O)(=O)NC(=O)c1ccc2c(C3CCCCC3)c3n(c2c1)C[C@@]1(C(=O)N2CCOCC2)C[C@H]1c1ccccc1-3 (single isomer, unassigned) |  | EC50 (HCV replicon cells): 0.02 to 1 µM
CCN(CC)C1CCN(C(=O)C23CC2c2cc(OC)ccc2-c2c(C4CCCCC4)c4ccc(C(=O)NS(=O)(=O)N(C)C)cc4n2C3)CC1 (centres unmarked) | 0.02 to 1 | 
COC(=O)c1ccc2c(C3CCCCC3)c3n(c2c1)CC1(C(=O)N2CCOCC2)CC1c1cc(OC(C)C)ccc1-3 (centres unmarked) | 0.02 to 1 | 
COc1ccc2c(c1)C1CC1(C(=O)N(C)C)Cn1c-2c(C2CCCCC2)c2ccc(C(=O)NS(=O)(=O)N(C)C)cc21 (centres unmarked) | 0.02 to 1 | 
COC(=O)C12CC1c1cc(OC)ccc1-c1c(C3CCCCC3)c3ccc(C(=O)OC(C)(C)C)cc3n1C2 (centres unmarked) | > 10 | 
COC[C@H]1CN(C(=O)C23CC2c2cc(OC)ccc2-c2c(C4CCCCC4)c4ccc(C(=O)NS(=O)(=O)N(C)C)cc4n2C3)CCO1 (some centres unmarked) |  | EC50 (HCV replicon cells): 0.02 to 1 µM
COc1ccc2c(c1)C1CC1(C(=O)N1C[C@@H](C)O[C@@H](C)C1)Cn1c-2c(C2CCCCC2)c2ccc(C(=O)NS(C)(=O)=O)cc21 (some centres unmarked) | 0.097 to 1 | 
COC(=O)c1ccc2c(C3CCCCC3)c3n(c2c1)CC1(C(=O)N2CCOCC2)CC1c1ccccc1-3 (centres unmarked) | 0.02 to 1 | 
COc1ccc2c(c1)C1CC1(C(=O)N1CCOCC1)Cn1c-2c(C2CCCCC2)c2ccc(C(=O)NS(=O)(=O)N3CCN(C)CC3)cc21 (centres unmarked) | 0.02 to 1 | 
COc1ccc2c(c1)[C@@H]1C[C@]1(C(=O)N1CCCC[C@H]1CN(C)C)Cn1c-2c(C2CCCCC2)c2ccc(C(=O)NS(=O)(=O)N(C)C)cc21 | 0.097 to 1 | 
COC(=O)c1ccc2c(C3CCCCC3)c3n(c2c1)CC1(C(=O)OC)CC1c1cc(OC)ccc1-3 (centres unmarked) |  | EC50 (HCV replicon cells): 0.02 to 1 µM
C[C@@H]1CN(C(=O)C23CC2c2cc(OCc4ccccc4)ccc2-c2c(C4CCCCC4)c4ccc(C(=O)NS(=O)(=O)N(C)C)cc4n2C3)C[C@H](C)O1 (some centres unmarked) | 0.02 to 1 | 
CC(C)Oc1ccc2c(c1)C1CC1(C(=O)N1CCOCC1)Cn1c-2c(C2CCCCC2)c2ccc(C(=O)O)cc21 (centres unmarked) | 0.02 to 1 | 
alpha-interferon and ribavirin |  | sustained efficacy (HCV): 40 % of patients
COc1ccc2c(c1)C1CC1(C(=O)N1CCOCC1)Cn1c-2c(C2CCCCC2)c2ccc(C(=O)NS(=O)(=O)C3CC3)cc21 (centres unmarked) | 0.02 to 1 | 
O=C(O)c1ccc2c(C3CCCCC3)c3n(c2c1)C[C@@]1(C(=O)N2CCOCC2)C[C@H]1c1ccccc1-3 (single isomer, unassigned) |  | EC50 (HCV replicon cells): 0.02 to 1 µM
COc1ccc2c(c1)C1CC1(C(=O)N1CCC(N3CCOCC3)CC1)Cn1c-2c(C2CCCCC2)c2ccc(C(=O)O)cc21 (centres unmarked) | 0.02 to 1 | 
COc1ccc2c(c1)C1CC1(C(=O)N1C[C@@H](C)O[C@@H](C)C1)Cn1c-2c(C2CCCCC2)c2ccc(C(=O)NS(=O)(=O)N(C)C)cc21 (some centres unmarked) |  | EC50 (HCV replicon cells): 0.02 to 1 µM
COC(=O)C12CC1c1cc(OC)ccc1-c1c(C3CCCCC3)c3ccc(C(=O)O)cc3n1C2 (centres unmarked) |  | EC50 (HCV replicon cells): 1 to 10 µM
CN(C)S(=O)(=O)NC(=O)c1ccc2c(C3CCCCC3)c3n(c2c1)CC1(C(=O)N2CCOCC2)CC1c1ccccc1-3 (centres unmarked) |  | EC50 (HCV replicon cells): 0.02 to 1 µM
COc1ccc2c(c1)C1CC1(C(=O)N1CCOC(CN(C)C)C1)Cn1c-2c(C2CCCCC2)c2ccc(C(=O)NS(=O)(=O)C3CC3)cc21 (centres unmarked) | 0.02 to 1 | 

Compound | EC50 (HCV replicon cells; [1]) [µM] | other results
COc1ccc2c(c1)C1CC1(C(=O)N1CCOCC1)Cn1c-2c(C2CCCCC2)c2ccc(C(=O)NS(=O)(=O)N(C)C)cc21 (centres unmarked) |  | EC50 (HCV replicon cells): 0.02 to 1 µM
O=C(O)c1ccc2c(C3CCCCC3)c3n(c2c1)C[C@]1(C(=O)N2CCOCC2)C[C@@H]1c1ccccc1-3 (single isomer, unassigned) |  | EC50 (HCV replicon cells): 0.02 to 1 µM
CCN(C)CCN(C)C(=O)C12CC1c1cc(OC)ccc1-c1c(C3CCCCC3)c3ccc(C(=O)NS(=O)(=O)N(C)C)cc3n1C2 (centres unmarked) | 0.097 to 1 | 
O=C(O)c1ccc2c(C3CCCCC3)c3n(c2c1)CC1(C(=O)N2CCOCC2)CC1c1ccccc1-3 (centres unmarked) |  | EC50 (HCV replicon cells): 0.02 to 1 µM
COC[C@@H]1CN(C(=O)C23CC2c2cc(OC)ccc2-c2c(C4CCCCC4)c4ccc(C(=O)NS(=O)(=O)N(C)C)cc4n2C3)CCO1 (some centres unmarked) [listing 1 of 2 here] |  | EC50 (HCV replicon cells): 0.02 to 1 µM
COC(=O)C12CC1c1cc(O)ccc1-c1c(C3CCCCC3)c3ccc(C(=O)NS(=O)(=O)N(C)C)cc3n1C2 (centres unmarked) | 0.02 to 1 | 
CCN(CC)C(=O)CN(C)C(=O)C12CC1c1cc(OC)ccc1-c1c(C3CCCCC3)c3ccc(C(=O)NS(=O)(=O)N(C)C)cc3n1C2 (centres unmarked) | 0.02 to 1 | 
COc1ccc2c(c1)C1C[C@]1(C(=O)N[C@@H]1C3CCC(C)([C@@H]1O)C3(C)C)Cn1c-2c(C2CCCCC2)c2ccc(C(=O)NS(=O)(=O)N(C)C)cc21 (some centres unmarked) | 0.02 to 1 | 
CCc1ccc2c(c1)C1CC1(C(=O)N1CCOCC1)Cn1c-2c(C2CCCCC2)c2ccc(C(=O)NS(=O)(=O)N(C)C)cc21 (centres unmarked) | 0.02 to 1 | 
C=Cc1ccc2c(c1)C1CC1(C(=O)N1CCOCC1)Cn1c-2c(C2CCCCC2)c2ccc(C(=O)O)cc21 (centres unmarked) | 0.02 to 1 | 
COC[C@@H]1CN(C(=O)C23CC2c2cc(OC)ccc2-c2c(C4CCCCC4)c4ccc(C(=O)NS(=O)(=O)N(C)C)cc4n2C3)CCO1 (some centres unmarked) [listing 2 of 2 here] |  | EC50 (HCV replicon cells): 0.097 to 1 µM
COc1ccc2c(c1)C1CC1(C(=O)N1CCOCC1)Cn1c-2c(C2CCCCC2)c2ccc(C(=O)NS(=O)(=O)N3CCOCC3)cc21 (centres unmarked) | 0.02 to 1 | 
COc1ccc2c(c1)[C@@H]1C[C@]1(C(=O)N1CCCC[C@@H]1CN(C)C)Cn1c-2c(C2CCCCC2)c2ccc(C(=O)NS(=O)(=O)N(C)C)cc21 | 0.097 to 1 | 
COc1ccc2c(c1)C1C[C@@]1(C(=O)O)Cn1c-2c(C2CCCCC2)c2ccc(C(=O)NS(=O)(=O)N(C)C)cc21 (single isomer, unassigned) | 1 to 10 | 
CCOc1ccc2c(c1)C1CC1(C(=O)N1CCOCC1)Cn1c-2c(C2CCCCC2)c2ccc(C(=O)NS(=O)(=O)N(C)C)cc21 (centres unmarked) | 0.02 to 1 | 
CCc1ccc2c(c1)C1CC1(C(=O)N1CCOCC1)Cn1c-2c(C2CCCCC2)c2ccc(C(=O)O)cc21 (centres unmarked) | 0.02 to 1 | 
COc1ccc2c(c1OCc1ccccc1)C1CC1(C(=O)O)Cn1c-2c(C2CCCCC2)c2ccc(C(=O)NS(=O)(=O)N(C)C)cc21 (centres unmarked) | > 1 | 
CN(C)S(=O)(=O)NC(=O)c1ccc2c(C3CCCCC3)c3n(c2c1)C[C@]1(C(=O)N2CCOCC2)C[C@@H]1c1ccccc1-3 (single isomer, unassigned) |  | EC50 (HCV replicon cells): 0.02 to 1 µM
COc1ccc2c(c1)C1CC1(C(=O)N1CCC(N3CCOCC3)CC1)Cn1c-2c(C2CCCCC2)c2ccc(C(=O)NS(=O)(=O)C3CC3)cc21 (centres unmarked) | 0.02 to 1 | 
CN(C)S(=O)(=O)NC(=O)c1ccc2c(C3CCCCC3)c3n(c2c1)CC1(C(=O)N2CCOCC2)CC1c1cc(O)ccc1-3 (centres unmarked) | 0.02 to 1 | 
CC(C)c1ccc2c(c1)C1CC1(C(=O)N1CCOCC1)Cn1c-2c(C2CCCCC2)c2ccc(C(=O)O)cc21 (centres unmarked) | 0.02 to 1 | 
CC(C)Oc1ccc2c(c1)C1CC1(C(=O)N1CCOCC1)Cn1c-2c(C2CCCCC2)c2ccc(C(=O)NS(=O)(=O)N(C)C)cc21 (centres unmarked) | 0.02 to 1 | 
COc1ccc2c(c1)C1C[C@]1(C(=O)O)Cn1c-2c(C2CCCCC2)c2ccc(C(=O)NS(=O)(=O)N(C)C)cc21 (some centres unmarked) | 1 to 10 | 
Cc1ccc2c(c1)C1CC1(C(=O)N1CCOCC1)Cn1c-2c(C2CCCCC2)c2ccc(C(=O)O)cc21 (centres unmarked) | 0.02 to 1 | 
COc1ccc2c(c1)C1CC1(C(=O)N1CCOCC1)Cn1c-2c(C2CCCCC2)c2ccc(C(=O)O)cc21 (centres unmarked) | 0.02 to 1 | 
